Structures can show the parent of a compound that is named as a salt. Values belong to the compound of their own block, whether it stands above or below them.
What was measured:
[1] = tested on: isolated guinea pig ileum (KCl-induced contractions); test: Block of KCl-induced contraction of the isolated guinea-pig ileum; conditions: block of contractions of isolated guinea pig ileum induced by KCl
Protocol: (§1) Compounds according to formula I were tested for their ability to block contractions of the isolated guinea pig ileum induced by KCl, carbachol, or histamine at a concentration of 10^-7 M. Ileum preparations were prepared according to standard methodology. The concentrations shown are the minimum required to show activity.

[2] = Penetration into the central nervous system; assay type: in vivo; conditions: for Ability to penetrate into the CNS: in vivo
[3] = tested on: isolated guinea pig ileum (carbachol-induced contractions); test: Block of carbachol-induced contraction of the isolated guinea-pig ileum; conditions: block of contractions of isolated guinea pig ileum induced by carbachol
Protocol: as §1

[4] = tested on: isolated guinea pig ileum (histamine-induced contractions); test: Block of histamine-induced contraction of the isolated guinea-pig ileum; conditions: for minimal effective concentration: Cavia porcellus, isolated guinea pig ileum, histamine 10^-7 M, read-out: Effect on Histamine: minimum concentration required to show activity; for Effect on Histamine: block of contractions of isolated guinea pig ileum induced by histamine at 10^-7 M
Protocol: (§2) The compound of Example 2 was found in low concentrations to inhibit contractions of the guinea-pig isolated ileum and rat isolated stomach strip caused by histamine and 5-hydroxytryptamine respectively. […] Concomitantly, the depressor effects of histamine were blocked, as were the pressor effects of 5-hydroxytryptamine for over 30 minutes. The pressor effects of 5-hydroxytryptamine in anaesthetised and pithed rats were inhibited by intravenous doses of 0.3-1.0 mg/kg body weight. Slightly higher doses reduced the bradycardia and the depressor response (the Bezold-Jarisch reflex mediated by 5-HT3 receptors) to 5-hydroxytryptamine in anaesthetised rats. The drug inhibited oedema in the rat paw caused by intraplantar 5-hydroxytryptamine. […] In mice it inhibited diarrhoea caused by L-5-hydroxytryptophan. In guinea pigs, intravenous doses of 0.03 mg/kg and above reduced the bronchoconstrictor effects of histamine and 5-hydroxytryptamine.
as §1

[5] = tested on: central nervous system (spinal flexor reflex); test: Spinal flexor reflex in the rat; assay type: in vivo; conditions: mianserin in low doses
[6] = tested on: arterial blood pressure and heart rate; test: Arterial blood pressure, heart rate and pressor responses to noradrenaline, sympathetic nerve stimulation and tyramine after intravenous injection into cats; assay type: in vivo, cat
conscious cats = test: Behavioural changes and acute toxicity in the cat; assay type: in vivo
[7] = tested on: depressor effects of histamine; test: Depressor effects of histamine in rats; assay type: in vivo, rat; conditions: intravenous 0.1 mg/kg or greater
Protocol: as §2
(§3) The compound of Example 4 when injected into rats at intravenous doses of 0.3 mg/kg or greater reduced the pressor effects of 5-hydroxytryptamine and also the depressor effects of histamine. In cats, the effect of histamine was reduced after these doses also.

[8] = tested on: rat paw oedema caused by 5-hydroxytryptamine; test: Oedema in the rat paw caused by intraplantar 5-hydroxytryptamine; assay type: in vivo
Protocol: as §2

[9] = tested on: depressor effects of histamine; test: Effects of histamine in cats; assay type: in vivo, cat; conditions: intravenous
Protocol: as §2
(§4) In cats, the effects of the ganglion stimulant McNeil -A-343 and histamine were reduced. Following intravenous injection into guinea-pigs, […] reduced histamine and 5-hydroxytryptamine induced broncho-constriction. Concentrations of 1 μg/ml or greater relaxed the isolated rat uterus in vitro.
as §3

[10] = tested on: arterial blood pressure and heart rate; test: Arterial blood pressure, heart rate and pressor responses to noradrenaline, sympathetic nerve stimulation and tyramine after intravenous injection into rats; assay type: in vivo, rat; conditions: for minimal effective dose: intravenous
[11] = tested on: bronchoconstrictor effects of histamine and 5-hydroxytryptamine; test: Histamine and 5-hydroxytryptamine induced bronchoconstriction in guinea pigs; assay type: in vivo, guinea pig; conditions: Cavia porcellus, intravenous, read-out: Intravenous dose reducing histamine and 5-hydroxytryptamine bronchoconstriction
Protocol: as §2, §4, §3
(§5) Thus doses of 1 mg/kg given intraperitoneally attenuated the facilitation of spinal reflex activity caused by p-chloroamphetamine, and also the facilitation of spinal reflexes induced by fenfluramine in spinal and decerebrate rats. […] The drug in doses of 10 and 20 mg/kg intraperitoneally and in doses of 20 mg/kg by mouth attenuated morphine-induced catalepsy. We conclude therefore that this drug is an orally active drug with central actions, particularly affecting serotonergic mechanisms, but has no effect in vitro (Table 1). […] Thus it was found after intravenous doses of 0.03 mg/kg to reduce histamine and 5-hydroxytryptamine bronchoconstriction in the guinea pig.

[12] = tested on: central nervous system (morphine induced catalepsy); test: Morphine induced catalepsy in the rat; assay type: in vivo; conditions: for Action in morphine induced catalepsy test: rat, mianserin in low doses
Protocol: as §5

[13] = tested on: 5-HT3 receptors (Bezold-Jarisch reflex); test: Bradycardia and depressor response (Bezold-Jarisch reflex) to 5-hydroxytryptamine in anaesthetised rats; assay type: in vivo, rat; conditions: doses slightly higher than 0.3-1.0 mg/kg i.v.
Protocol: as §2

[14] = tested on: pressor effects of 5-hydroxytryptamine; test: Pressor effects of 5-hydroxytryptamine in cats; assay type: in vivo, cat; conditions: intravenous 0.1 mg/kg or greater
Protocol: as §2

[15] = tested on: diarrhoea caused by L-5-hydroxytryptophan; test: Diarrhoea caused by L-5-hydroxytryptophan in mice; assay type: in vivo, mouse
Protocol: as §2

[16] = tested on: rat isolated stomach strip (5-hydroxytryptamine-induced contractions); test: Contractions of rat isolated stomach strip caused by 5-hydroxytryptamine
Protocol: as §2

[17] = tested on: pressor effects of 5-hydroxytryptamine; test: Pressor effects of 5-hydroxytryptamine in rats; assay type: in vivo, rat
Protocol: as §2, §4, §3

[18] = tested on: central nervous system (L-5-hydroxytryptophan-induced head twitch); test: L-5-hydroxytryptophan-induced head twitch in the mouse; assay type: in vivo; conditions: mianserin in low doses
[19] = tested on: effects of histamine and 5-hydroxytryptamine on blood pressure and heart rate; test: Effects of histamine and 5-hydroxytryptamine on blood pressure and heart rate in the chloral-anaesthetized rat; assay type: in vivo
[20] = tested on: spinal reflex activity (serotonergic mechanisms); test: Facilitation of spinal reflexes by p-chloroamphetamine, fenfluramine or clonidine in spinal and decerebrate rats; assay type: in vivo, rat
Protocol: as §5

isolated rat uterus = test: Isolated rat uterus in vitro; conditions: Rattus norvegicus, read-out: Concentration relaxing the isolated rat uterus
[21] = tested on: effects of the ganglion stimulant McNeil -A-343; test: Effects of the ganglion stimulant McNeil-A-343 in cats; assay type: in vivo, cat
Protocol: as §4

[22] = intravenous 0.1 mg/kg or greater
[23] = rats, intravenous 0.1 mg/kg or greater

Ability to penetrate into the CNS [2]: able to penetrate into the CNS
SMILES: NC(=O)CN1CCN2c3ccccc3Cc3ccccc3C2C1 (centres unmarked) [Example 13, 2-(Carboxamidomethyl)-1,2,3,4,10,14b-hexahydrodibenzo [c,f]pyrazino[1,2-a]azepine hydrochloride]
Effect on KCl [1]: - (no effect) | Effect on Carbachol [3]: - (no effect) | minimal effective concentration [4]: 0.01 to 0.1 µM | Effect on Histamine [4]: ++

SMILES: CCNC(=NC#N)N1CCN2c3ccccc3Cc3ccccc3C2C1 (centres unmarked) [Example 7, 2-(N-Cyano-N'-ethyl-carboxamidino)-1,2,3,4,10,14b-hexahydrodibenzo[c,f]pyrazino[1,2-a]azepine]
Effect on KCl [1]: - (no effect) | Effect on Carbachol [3]: - (no effect) | minimal effective concentration [4]: 0.01 to 0.1 µM | Effect on Histamine [4]: ++

SMILES: N=C(N)N1CCN2c3ccccc3Cc3ccccc3C2C1 (centres unmarked) [Example 2, 2-Carboxamidino-1,2,3,4,10,14b-hexahydrodibenzo [c,f]pyrazino[1,2-a]azepineHydrochloride]
Action in spinal flexor reflex test [5]: failed to demonstrate any inhibitory or other actions | minimal effective dose ([6]; Felis catus, intravenous, read-out: Intravenous dose causing long-lasting rises in arterial blood pressure and heart rate): ≥ 0.1 mg/kg | Pressor responses of the indirectly acting sympathomimetic agent tyramine [6, 22]: blockade | Pressor responses to noradrenaline and sympathetic nerve stimulation [6, 22]: potentiation | Action on the central nervous system: behavioural changes in the cat (conscious cats; cat): failed to demonstrate any inhibitory or other actions | Overt behavioural changes or acute toxicity (conscious cats; conscious cats, relatively large subcutaneous doses): No overt behavioural changes or acute toxicity | Depressor effects of histamine [7]: blocked | Oedema in the rat paw caused by intraplantar 5-hydroxytryptamine ([8]; oral and subcutaneous): inhibited | Oral absorption indicated by ratio of oral to subcutaneous dose ([8]; rat paw oedema): relatively good oral absorption | Penetration into the central nervous system ([2]; concluded from four CNS test situations): does not penetrate into the central nervous system | Effects of histamine (depressor) in cats [9]: blocked | Effect on Carbachol [3]: - (no effect) | minimal effective dose ([10]; Rattus norvegicus, rats, read-out: Intravenous dose causing long-lasting rises in arterial blood pressure and heart rate): ≥ 0.1 mg/kg | Pressor responses of the indirectly acting sympathomimetic agent tyramine [10, 23]: blockade | Pressor responses to noradrenaline and sympathetic nerve stimulation [10, 23]: potentiation | minimal effective dose [11]: ≥ 0.03 mg/kg | Action in morphine induced catalepsy test [12]: failed to demonstrate any inhibitory or other actions | Bradycardia and depressor response (Bezold-Jarisch reflex) to 5-hydroxytryptamine [13]: reduced | Duration of block of the pressor effects of 5-hydroxytryptamine [14]: over 30 minutes | Diarrhoea caused by L-5-hydroxytryptophan [15]: inhibited | Contractions of rat isolated stomach strip caused by 5-hydroxytryptamine ([16]; low concentrations): inhibit | Nature of the antagonism to 5-hydroxytryptamine ([16]; rat isolated stomach strip, relatively resistant to washing): persistent and non-competitive | Duration of block of the pressor effects of 5-hydroxytryptamine [17, 23]: over 30 minutes | Action in L-5-hydroxytryptophan-induced head twitch test [18]: failed to demonstrate any inhibitory or other actions | minimal effective concentration [4]: 0.01 µM | Effect on Histamine [4]: ++ | Nature of the antagonism to histamine ([4]; guinea-pig isolated ileum, relatively resistant to washing): persistent and non-competitive | Contractions of the guinea-pig isolated ileum caused by histamine ([4]; low concentrations): inhibit

SMILES: CCNC(=N)N1CCN2c3ccccc3Cc3ccccc3C2C1 (centres unmarked) [Example 11, 2-(N-Ethylcarboxamidino)-1,2,3,4,10,14b-hexahydrodibenzo[c,f]pyrazino[1,2-a]azepine hydrochloride]
Effect on KCl [1]: - (no effect) | Effect on Carbachol [3]: - (no effect) | Block of effect on heart rate of both histamine and 5-hydroxytryptamine [19]: not | Effect on blood pressure of both histamine and 5-hydroxytryptamine [19]: complete block | minimal effective concentration [4]: 0.01 to 0.1 µM | Effect on Histamine [4]: ++

SMILES: CCNC(=O)N1CCN2c3ccccc3Cc3ccccc3C2C1 (centres unmarked) [Example 10, 2-(N-Ethylcarboxamido)-1,2,3,4,10,14b-hexahydrodibenzo[c,f]pyrazino[1,2-a]azepine]
Effect on KCl [1]: - (no effect) | Effect on Carbachol [3]: - (no effect) | minimal effective concentration [4]: 0.1 µM | Effect on Histamine [4]: + (block)

Ability to penetrate into the CNS [2]: able to penetrate into the CNS
SMILES: NC(=O)CCN1CCN2c3ccccc3Cc3ccccc3C2C1 (centres unmarked) [Example 14, 2-(2-Carboxamidoethyl)-1,2,3,4,10,14b-hexahydrodibenzo[c,f]pyrazino[1,2-a]azepine]
Effect on KCl [1]: - (no effect) | Effect on Carbachol [3]: - (no effect) | minimal effective concentration [4]: 0.01 to 0.1 µM | Effect on Histamine [4]: ++

SMILES: CCNC(=S)N1CCN2c3ccccc3Cc3ccccc3C2C1 (centres unmarked) [Example 12, 2-(N-Ethylthiocarboxamido)-1,2,3,4,10,14b-hexahydrodibenzo[c,f]pyrazino[1,2-a]azepine]
Effect on KCl [1]: - (no effect) | Effect on Carbachol [3]: - (no effect) | minimal effective concentration [4]: 0.01 to 0.1 µM | Effect on Histamine [4]: ++

SMILES: NC(=O)N1CCN2c3ccccc3Cc3ccccc3C2C1 (centres unmarked) [Example 5, 2-Carboxamido-1,2,3,4,10,14b-hexahydrodibenzo [c,f]pyrazino[1,2-a]azepine]
Effect on KCl [1]: - (no effect) | Effect on Carbachol [3]: - (no effect) | minimal effective dose [11]: 0.03 mg/kg | Morphine-induced catalepsy ([12]; 20 mg/kg by mouth): attenuated | Morphine-induced catalepsy ([12]; 10 and 20 mg/kg intraperitoneally): attenuated | Facilitation of spinal reflex activity caused by p-chloroamphetamine ([20]; 1 mg/kg intraperitoneally): attenuated | Facilitation of spinal reflexes induced by fenfluramine ([20]; 1 mg/kg intraperitoneally, spinal and decerebrate rats): attenuated | Facilitation of spinal reflexes caused by clonidine ([20]; at these dose levels (1 mg/kg intraperitoneally)): did not antagonise | minimal effective concentration [4]: 0.01 to 0.1 µM | Effect on Histamine [4]: ++

SMILES: CN1CCN2c3ccccc3Cc3ccccc3C2C1 (centres unmarked) [mianserin, 1,2,3,4,10,14b-hexahydro-2-methyldibenzo [c,f]pyrazino[1,2-a]azepine, reference compound]
Action in spinal flexor reflex test [5]: effective | Action in morphine induced catalepsy test [12]: effective | Action in L-5-hydroxytryptophan-induced head twitch test [18]: effective

SMILES: N=C(NCCOc1ccccc1)N1CCN2c3ccccc3Cc3ccccc3C2C1 (centres unmarked) [Example 9, 2-(N-2-Phenoxyethylcarboxamidino)-1,2,3,4,10,14b-hexahydrodibenzo[c,f]pyrazino[1,2-a]azepine hydrochloride]
Effect on KCl [1]: - (no effect) | Effect on Carbachol [3]: - (no effect) | minimal effective concentration [4]: 0.01 to 0.1 µM | Effect on Histamine [4]: ++

SMILES: c1ccc2c(c1)Cc1ccccc1N1CCN(C3=NCCN3)CC21 (centres unmarked) [Example 3, 2-(2-Imidazolino)-1,2,3,4,10,14b-hexahydrodibenzo [c,f]pyrazino[1,2-a]azepine p-toluenesulphonate]
minimal effective concentration (isolated rat uterus): ≥ 1 µg/mL | Effect on KCl [1]: - (no effect) | Effects of histamine (depressor) in cats [9]: reduced | Effect on Carbachol [3]: - (no effect) | minimal effective dose ([10]; rat, read-out: Intravenous dose causing rises in arterial blood pressure): ≥ 0.1 mg/kg | minimal effective dose [11]: 0.01 mg/kg | Effects of the ganglion stimulant McNeil -A-343 [21]: reduced | minimal effective dose ([17]; rat, intravenous, read-out: Intravenous dose depressing/reducing the pressor responses to 5-hydroxytryptamine): ≥ 0.1 mg/kg | minimal effective concentration [4]: 0.01 µM | Effect on Histamine [4]: ++

— US5049637A, “1,2,3,4,10,14b-hexahydrodibenzo[c,f]pyrazino-[1,2-a]azepino derivatives and 10-aza, 10-oxa and 10-thia analogues” (Monash University, priority 1987, dated 1991)
